The values that follow are results of earlier work, collected in PubChem BioAssay AID1259409 (Chemical Carcinogenesis Research Information System (CCRIS), 2018).

The data set relates to rodent chemically induced tumor inhibition, incidence and multiplicity. Briefly: CCRIS tumor inhibitor studies. As to conditions: for outcome: Carcinogen: DIMETHYLBENZ[A]ANTHRACENE, Dose [Carcinogen]: 10 NMOL ONCE, Promoter: 12-O-TETRADECANOYLPHORBOL-13-ACETATE.

The structures appear in SMILES notation.

With `CCCCCc1ccccc1`, the “tumour outcome (control, treated, inhibition, significance)” value (Carcinogen: 4-(METHYLNITROSAMINO)-1-(3-PYRIDYL)-1-BUTANONE, 64091-91-4, Dose [Inhibitor]: 0, 25 UMOL IN 0.1 ML CORN OIL ONCE 2 HR PRIOR TO CARCINOGEN DOSE (STUDY DURATION: 16 WK), Route [Inhibitor]: GAVAGE, Species: MOUSE, Strain/Sex: STRAIN-A/FEMALE, Target Tissue: Type of Lesion: LUNG: TUMOR, Dose [Carcinogen]: 10 UMOL IN 0.1 ML SALINE ONCE, Promoter: NONE USED) is recorded as 100%, 95%, 5%, not significant.

On to `Cc1cc2cc3ccc4cccc5ccc(c2oc1=O)c3c45`, for which the outcome by setting is: (57-97-6, Dose [Inhibitor]: 0, 200 NMOL IN ACETONE ONCE 5 MIN PRIOR TO CARCINOGEN DOSE (STUDY DURATION: 14 WK), Route [Inhibitor]: DERMAL, Species: MOUSE, Strain/Sex: SENCAR/FEMALE, Target Tissue: Type of Lesion: SKIN: PAPILLOMA, 16561-29-8) 8.9, 2.8, 69%, p<0.05; (57-97-6, Dose [Inhibitor]: 0, 200 NMOL IN ACETONE ONCE 24 HR PRIOR TO CARCINOGEN DOSE (STUDY DURATION: 14 WK), Route [Inhibitor]: DERMAL, Species: MOUSE, Strain/Sex: SENCAR/FEMALE, Target Tissue: Type of Lesion: SKIN: PAPILLOMA, 16561-29-8) 8.9, 2.1, 76%, p<0.05; (57-97-6, Dose [Inhibitor]: 0, 400 NMOL IN ACETONE ONCE 5 MIN PRIOR TO CARCINOGEN DOSE (STUDY DURATION: 14 WK), Route [Inhibitor]: DERMAL, Species: MOUSE, Strain/Sex: SENCAR/FEMALE, Target Tissue: Type of Lesion: SKIN: PAPILLOMA, 16561-29-8) 8.9, 3.3, 63%, p<0.05.

For `O=c1[nH]c(=O)n([C@H]2C[C@H](O)[C@@H](CO)O2)cc1Br`, the “tumour outcome (control, treated, inhibition, significance)” value runs as follows: (Carcinogen: DIETHYLNITROSAMINE, 55-18-5, Dose [Inhibitor]: 0, 100 MG/KG INJECTED 4, 24, AND 48 HR AFTER EACH CARCINOGEN EXPOSURE (STUDY DURATION: 6 MO), Route [Inhibitor]: INTRAPERITONEAL, Species: RAT, Strain/Sex: BD6/MALE, Target Tissue: Type of Lesion: ESOPHAGUS: TUMOR, Dose [Carcinogen]: 80 MG/KG 1 WK FOR 7 WK) 10/40 (25%), 11/35 (31%), -24%, not calculated; (Carcinogen: DIETHYLNITROSAMINE, 55-18-5, Dose [Inhibitor]: 0, 100 MG/KG INJECTED 4, 24, AND 48 HR AFTER EACH CARCINOGEN EXPOSURE (STUDY DURATION: 6 MO), Route [Inhibitor]: INTRAPERITONEAL, Species: RAT, Strain/Sex: BD6/MALE, Target Tissue: Type of Lesion: LIVER: TUMOR, Dose [Carcinogen]: 80 MG/KG 1/WK FOR 7 WK) 29/40 (73%), 20/35 (57%), 22%, not calculated.

`OCCOc1ccc(/C(=C(/CCCl)c2ccccc2)c2ccccc2)cc1`: the “tumour outcome (control, treated, inhibition, significance)” value runs as follows: (Carcinogen: 7,12-DIMETHYLBENZ[A]ANTHRACENE (DMBA) (57-97-6), Dose [Inhibitor]: 50 MG/KG/D FOR 37 WK (STUDY DURATION: 37 WK), Route [Inhibitor]: ORAL GAVAGE, Species: MOUSE, Strain/Sex: SENCAR/FEMALE, Target Tissue: Type of Lesion: MAMMARY: CARCINOMA, Dose [Carcinogen]: 20 UG/D FOR 6 WKS (STUDY DURATION: 37 WKS), Promoter: MEDROXYPROGESTERONE ACETATE (71-58-9)) 10/21 (48%); 1/18 (6%), 88%, p=0.003; (Carcinogen: 7,12-DIMETHYLBENZ[A]ANTHRACENE (DMBA) [57-97-6], Dose [Inhibitor]: 50 MG/KG/D FOR 52 WK (STUDY DURATION: 52 WK), Route [Inhibitor]: ORAL GAVAGE, Species: MOUSE, Strain/Sex: SENCAR/FEMALE, Target Tissue: Type of Lesion: MAMMARY: CARCINOMA, Dose [Carcinogen]: 20 UG/D FOR 6 WKS, Promoter: MEDROXYPROGESTERONE ACETATE (71-58-9)) 13/23 (57%); 1/20 (5%), 91%, p=0.0003.

With `CCCCC1OC(=O)c2ccccc21` (configuration not stated), the “tumour outcome (control, treated, inhibition, significance)” value (Carcinogen: BENZO[A]PYRENE, 50-32-8, Dose [Inhibitor]: 0, 20 MG 3/WK FOR 4 WK ON DAYS OTHER THAN THE CARCINOGEN TREATMENT (STUDY DURATION: 20 WK), Route [Inhibitor]: GAVAGE, Species: MOUSE, Strain/Sex: STRAIN-A/FEMALE, Target Tissue: Type of Lesion: FORESTOMACH: TUMOR, Dose [Carcinogen]: 1 MG IN 0.2 ML COTTONSEED OIL 2/WK FOR 4 WK, Promoter: NONE USED) is given as 13/19 (68%), 6/20 (30%), 56%, p<0.005.

On to `C=C/C(C)=C/C=C/C(C)=C/C=C1/C(C)=CCCC1(C)C`, for which the “tumour outcome (control, treated, inhibition, significance)” value (Carcinogen: N-METHYL-N-NITROSOUREA, 684-93-5, Dose [Inhibitor]: 0, 67 MG/KG DIET FOR FOR 88 D BEGINNING 2 D POST CARCINOGEN DOSE (STUDY DURATION: 90 D), Route [Inhibitor]: ORAL, Species: RAT, Strain/Sex: SPRAGUE-DAWLEY/FEMALE, Target Tissue: Type of Lesion: MAMMARY GLAND: ADENOCARCINOMA, Dose [Carcinogen]: 45 MG/KG BW ONCE, Promoter: NONE USED) is 100%, 93%, 7%, not significant; the “tumour outcome (control, treated, inhibition, significance)” value (Carcinogen: N-METHYL-N-NITROSOUREA, 684-93-5, Dose [Inhibitor]: 0, 134 MG/KG DIET FOR 88 D BEGINNING 2 D POST CARCINOGEN DOSE (STUDY DURATION: 90 D), Route [Inhibitor]: ORAL, Species: RAT, Strain/Sex: SPRAGUE-DAWLEY/FEMALE, Target Tissue: Type of Lesion: MAMMARY GLAND: ADENOCARCINOMA, Dose [Carcinogen]: 45 MG/KG BW ONCE, Promoter: NONE USED) is given as 100%, 100%, 0%, not significant; the “tumour outcome (control, treated, inhibition, significance)” value (Carcinogen: N-METHYL-N-NITROSOUREA, 684-93-5, Dose [Inhibitor]: 0, 268 MG/KG DIET FOR 88 D BEGINNING 2 D POST CARCINOGEN DOSE (STUDY DURATION: 90 D), Route [Inhibitor]: ORAL, Species: RAT, Strain/Sex: SPRAGUE-DAWLEY/FEMALE, Target Tissue: Type of Lesion: MAMMARY GLAND: ADENOCARCINOMA, Dose [Carcinogen]: 45 MG/KG BW ONCE, Promoter: NONE USED) is listed as 100%, 87%, 13%, p<0.05; the “tumour outcome (control, treated, inhibition, significance)” value (Carcinogen: N-METHYL-N-NITROSOUREA, 684-93-5, Dose [Inhibitor]: 0, 536 MG/KG DIET FOR 88 D BEGINNING 2 D POST CARCINOGEN DOSE (STUDY DURATION: 90 D), Route [Inhibitor]: ORAL, Species: RAT, Strain/Sex: SPRAGUE-DAWLEY/FEMALE, Target Tissue: Type of Lesion: MAMMARY GLAND: ADENOCARCINOMA, Dose [Carcinogen]: 45 MG/KG BW ONCE, Promoter: NONE USED) was 100%, 80%, 20%, p<0.05.

As to `O=C(c1ccc(O)cc1O)C(c1coc2cc(O)ccc2c1=O)C(c1ccc(O)cc1)c1ccc(O)cc1` (configuration not stated), the “tumour outcome (control, treated, inhibition, significance)” value (Carcinogen: 7,12-DIMETHYLBENZ[A]ANTHRACENE, 57-97-6, Dose [Inhibitor]: 0, 16 NMOL 2/WK 1 HR PRIOR TO EACH PROMOTER DOSE FOR 20 WK (STUDY DURATION: 20 WK), Route [Inhibitor]: DERMAL, Species: MOUSE, Strain/Sex: ICR/FEMALE, Target Tissue: Type of Lesion: SKIN: TUMOR, Dose [Carcinogen]: 0.19 UMOL ONCE, Promoter: 12-0-TETRADECANOYLPHORBOL-13-ACETATE, 16561-29-8) is recorded as 70%, 60%, 14%, not calculated.

Take `O=c1[nH]cnc2[nH]ncc12`: the “tumour outcome (control, treated, inhibition, significance)” value (Carcinogen: N-BUTYL-N-(4-HYDROXYBUTYL)NITROSAMINE, 3817-11-6, Dose [Inhibitor]: 0.02% DIET DAILY FOR 34 WK STARTING AFTER CARCINOGEN TREATMENT (STUDY DURATION: 38 WK), Route [Inhibitor]: ORAL, Species: RAT, Strain/Sex: F344/MALE, Target Tissue: Type of Lesion: URINARY BLADDER: PAPILLOMA, Dose [Carcinogen]: 0.01% IN DRINKING WATER FOR 4 WK, Promoter: NONE USED) is 33%, 43%, -30%, not significant.

Regarding `CCCCCCCCCCCCCCCC(=O)OC[C@H](O)[C@H]1OC(=O)C(O)=C1O`, the “tumour outcome (control, treated, inhibition, significance)” value is on record as 100%, 88%, 12%, not significant (Carcinogen: 7,12-DIMETHYLBENZ[A]ANTHRACENE, 57-97-6, Dose [Inhibitor]: 0, 1 UMOL 1/WK 5 MIN PRIOR TO EACH PROMOTER DOSE BEGINNING 2 WK POST CARCINOGEN DOSE AND CONTINUING FOR 27 WK (STUDY DUR, Route [Inhibitor]: DERMAL, Species: MOUSE, Strain/Sex: SENCAR/FEMALE, Target Tissue: Type of Lesion: SKIN: PAPILLOMA, Dose [Carcinogen]: 25 NMOL ONCE, Promoter: CHRYSAROBIN, 491-58-7) and 100%, 90%, 10%, not significant (Carcinogen: 7,12-DIMETHYLBENZ[A]ANTHRACENE, 57-97-6, Dose [Inhibitor]: 0, 4 UMOL 1/WK 5 MIN PRIOR TO EACH PROMOTER DOSE BEGINNING 2 WK POST CARCINOGEN DOSE AND CONTINUING FOR 27 WK (STUDY DUR, Route [Inhibitor]: DERMAL, Species: MOUSE, Strain/Sex: SENCAR/FEMALE, Target Tissue: Type of Lesion: SKIN: PAPILLOMA, Dose [Carcinogen]: 25 NMOL ONCE, Promoter: CHRYSAROBIN, 491-58-7).
